In ChEMBL document CHEMBL4043088, “Design of novel HIV-1 protease inhibitors incorporating isophthalamide-derived P2-P3 ligands: Synthesis, biological evaluation and X-ray structural studies of inhibitor-HIV-1 protease complex” (Bioorg Med Chem, 2017) one finds IC50 and Ki data, which are given here for 20 compounds.

As usually defined, the IC50 is the concentration that gives 50% inhibition. By Ki is commonly meant the dissociation constant of the complex between target and ligand, obtained from inhibition or displacement. Lower therefore signals a stronger hold on the target.

Experiment [1] relates to Human immunodeficiency virus 1. Description: Antiviral activity against HIV1 LAI infected in human MT2 cells assessed as reduction in p24 Gag protein production incubated for 6 days by automated chemiluminescent enzyme immunoassay. Particulars: Human immunodeficiency virus 1, LAI, MT2, 144 h. The class given is functional, cell-based.
Experiment [2] in a line: Inhibition of HIV1 protease using fluorogenic substrate by continuous fluorometric assay. More on the design: species or system Human immunodeficiency virus 1.

Turning to `COc1ccc(S(=O)(=O)N(CC(C)C)C[C@@H](O)[C@H](Cc2ccccc2)NC(=O)c2cccc(C(=O)N(C)Cc3nc(C)oc3C)c2)cc1`, in experiment [1], the IC50 is 31 nM. Further, the affinity in experiment [2] corresponds to a Ki of 0.21 nM.

Take `COc1ccc(S(=O)(=O)N(CC(C)C)C[C@@H](O)[C@H](Cc2ccccc2)NC(=O)c2cccc(C(=O)N(C)Cc3nc(C)co3)c2)cc1`: the half-maximal inhibitory concentration (IC50) in experiment [1] was found to be 581 nM. In addition, in experiment [2], the Ki was determined as 0.63 nM. The corresponding values for `CNc1cc(C(=O)N[C@@H](Cc2ccccc2)[C@H](O)CN(CC(C)C)S(=O)(=O)c2ccc(OC)cc2)cc(C(=O)N(C)Cc2nc(C)oc2C)c1` are 600 nM and 5.08 nM.

Consider `COc1ccc(S(=O)(=O)N(CC(C)C)C[C@@H](O)[C@H](Cc2ccccc2)NC(=O)c2ccc(C(=O)N(C)Cc3nc(C)oc3C)cc2)cc1`, for which the IC50 in experiment [1] is above 1000 nM. Besides, affinity in experiment [2] was put at a Ki of 70 nM. With `COc1ccc(S(=O)(=O)N(CC(C)C)C[C@@H](O)[C@H](Cc2ccccc2)NC(=O)c2cccc(C(=O)N(C)Cc3csc(C)n3)c2)cc1`, the IC50 in experiment [1] was 32 nM. In experiment [2], the Ki stood at 0.107 nM. On the same counts, the results for `COc1ccc(S(=O)(=O)N(CC(C)C)C[C@@H](O)[C@H](Cc2ccccc2)NC(=O)c2ccccc2C(=O)N(C)Cc2nc(C)oc2C)cc1` are above 1000 nM and 629 nM. Turning to `COc1ccc(S(=O)(=O)N(CC(C)C)C[C@@H](O)[C@H](Cc2ccccc2)NC(=O)c2cccc(C(=O)N3CCC[C@H]3c3nc(C)cs3)c2)cc1`, the half-maximal inhibitory concentration (IC50) in experiment [1] was above 1000 nM. In addition, in experiment [2], the Ki stood at 30.8 nM. On the same counts, the results for `COc1ccc(S(=O)(=O)N(CC(C)C)C[C@@H](O)[C@H](Cc2ccccc2)NC(=O)c2cccc(C(=O)N3CCC[C@@H]3c3nc(C)cs3)c2)cc1` are 69 nM and 0.025 nM. As to `Cc1csc([C@H]2CCCN2C(=O)c2cccc(C(=O)N[C@@H](Cc3ccccc3)[C@H](O)CN(CC(C)C)S(=O)(=O)c3ccc(CO)cc3)c2)n1`, the IC50 in experiment [1] came out at 164 nM. In experiment [2], this compound yielded a Ki of 0.79 nM.

`COc1ccc(S(=O)(=O)N(CC(C)C)C[C@@H](O)[C@H](Cc2ccccc2)NC(=O)c2cncc(C(=O)N3CCC[C@@H]3c3nc(C)cs3)c2)cc1` displayed a Ki in experiment [2] of 2.5 nM. As to `COc1ccc(S(=O)(=O)N(CC(C)C)C[C@@H](O)[C@H](Cc2ccccc2)NC(=O)c2cccc(C(=O)N(C)Cc3coc(C)n3)c2)cc1`, the IC50 in experiment [1] worked out at 23 nM. The same compound gave a Ki in experiment [2] of 0.64 nM. On to `COc1ccc(S(=O)(=O)N(CC(C)C)C[C@@H](O)[C@H](Cc2ccccc2)NC(=O)c2cccc(C(=O)N3CCCC[C@@H]3c3nc(C)cs3)c2)cc1`, for which the IC50 in experiment [1] was 221 nM. For the same compound, in experiment [2], the Ki came to 0.53 nM. Consider `COc1ccc(S(=O)(=O)N(CC(C)C)C[C@@H](O)[C@H](Cc2ccccc2)NC(=O)c2cccc(C(=O)N3CC[C@H](c4nc(C)cs4)C3)c2)cc1`, for which the IC50 in experiment [1] was determined as 109 nM. This compound yielded a Ki in experiment [2] of 0.4 nM.

Take `COCc1coc([C@H]2CCCN2C(=O)c2cccc(C(=O)N[C@@H](Cc3ccccc3)[C@H](O)CN(CC(C)C)S(=O)(=O)c3ccc(OC)cc3)c2)n1`: the IC50 in experiment [1] stood at 327 nM. The Ki in experiment [2] was 0.8 nM. Turning to `Cc1csc([C@H]2CCCN2C(=O)c2cccc(C(=O)N[C@@H](Cc3ccccc3)[C@H](O)CN(CC(C)C)S(=O)(=O)c3ccc(N)cc3)c2)n1`, the IC50 in experiment [1] is 189 nM. Besides, the Ki in experiment [2] is 1.61 nM. Turning to `COc1ccc(S(=O)(=O)N(CC(C)C)C[C@@H](O)[C@H](Cc2ccccc2)NC(=O)c2cccc(CN3CCC[C@@H]3c3nc(C)cs3)c2)cc1`, in experiment [2], the affinity, expressed as Ki, was 23.6 nM. Regarding `COc1ccc(S(=O)(=O)N(CC(C)C)C[C@@H](O)[C@H](Cc2ccccc2)NC(=O)c2cccc(C(=O)N3CSC[C@@H]3c3nc(C)cs3)c2)cc1`, in experiment [1], the IC50 was 32 nM. The affinity in experiment [2], expressed as Ki, was 0.76 nM. Regarding `COc1ccc(S(=O)(=O)N(CC(C)C)C[C@@H](O)[C@H](Cc2ccccc2)NC(=O)c2cc(O)cc(C(=O)N(C)Cc3nc(C)oc3C)c2)cc1`, the IC50 in experiment [1] worked out at 290 nM. Moreover, the Ki in experiment [2] came out at 0.51 nM.

Turning to `COc1ccc(S(=O)(=O)N(CC(C)C)C[C@@H](O)[C@H](Cc2ccccc2)NC(=O)c2cccc(C(=O)N3CC[C@@H](c4nc(C)cs4)C3)c2)cc1`, the IC50 in experiment [1] stood at 280 nM. This compound also showed a Ki in experiment [2] of 0.49 nM. Consider `COc1ccc(S(=O)(=O)N(CC(C)C)C[C@@H](O)[C@H](Cc2ccccc2)NC(=O)c2cccc(C(=O)N3CCC[C@@H]3c3nc(C)co3)c2)cc1`, for which the IC50 in experiment [1] stood at 33 nM. In experiment [2], this compound showed a Ki of 0.41 nM.
